The values that follow come from ChEMBL document CHEMBL1157539, “Thousands of chemical starting points for antimalarial lead identification” (Nature, 2010).

This assay concerns Plasmodium falciparum. Description: GSK_TCMDC: Inhibition of Plasmodium falciparum 3D7 in whole erythrocytes, using parasite LDH activity as an index of growth. The class given is functional, organism-based. The conditions noted are these: Plasmodium falciparum, 3D7.
In turn, `COc1cccc2c(N/N=C/c3cccc([N+](=O)[O-])c3)ccnc12` displayed an XC50 of 748 nM. Regarding `CN1CCC(N(Cc2ccc(-c3ccc(C(F)(F)F)cc3)cc2)C(=O)Cn2c(SCc3cccc(F)c3F)cc(=O)c3c2CCC3)CC1`, the XC50 came to 161 nM. With `c1ccc2c(Nc3ccc(Cc4ccc(Nc5c6ccccc6nc6ccccc56)cc4)cc3)c3ccccc3nc2c1` the figure was 162 nM.

With `Cc1cc(N[C@@H](CC(C)C)C(=O)NCc2cccs2)nc(NCCc2cccs2)n1`, the XC50 stood at 1020 nM. With `CC(C)(C)c1ccc(CN2CCC(CNC(=O)c3cc(-c4ccccc4C(F)(F)F)cs3)C2)cc1` (centres undefined) the figure was 1240 nM; with `COc1cc2nc(NCCc3ccccc3)nc(NCc3cnn(C)c3C)c2cc1OC`, 711 nM. Consider `O=C(NCCNc1noc(-c2sccc2Br)n1)c1ccc(Cl)cc1`, for which the XC50 is 1170 nM.

For the molecule `CCC(CC)(CCC#N)CN(C[C@@H](O)[C@H](Cc1ccccc1)NC(=O)OC(C)(C)C)S(=O)(=O)c1ccc(OC)cc1`, the XC50 came out at 1040 nM. In turn, `COC(C(=O)OCCC1CCCN1C)(c1ccccc1)C1CCCCC1` (centres undefined) registered an XC50 of 711 nM. `CCCc1cnc2nc(N)nc(N)c2c1C` came in with an XC50 of 1120 nM. With `Cc1cc(N[C@@H](Cc2ccccc2)C(=O)NCCc2ccccc2)nc(NCCc2ccc(F)cc2)n1` the figure was 661 nM; with `Cc1nc(-c2cccc(C(=O)Nc3cnc4ccccc4c3)c2)no1`, 1160 nM. For the molecule `O=C(Nc1cccc(-c2cccc(-c3nc4ccccc4[nH]3)c2)c1)c1cccnc1`, the XC50 turned out to be 646 nM.

As for `N#Cc1ccc(N(CC(=O)NCCc2ccc(F)cc2)CC2CC2)c2ccccc12`, the XC50 was determined as 932 nM.

As for `COc1ccc2nccc(N3CCC(CCNCc4cc5c(cn4)OCCO5)CC3)c2c1`, the XC50 amounted to 874 nM. With `O=C(NC1CCC(N2CCN(c3cccc(C(F)(F)F)c3)CC2)CC1)c1cc2ccccc2[nH]1` (centres undefined), the XC50 was determined as 723 nM. `COc1ccc(Nc2nccc(N3CCC(NC(=O)C(C)c4ccc(Cl)cc4)C3)n2)cc1` (centres undefined) showed an XC50 of 1010 nM. Next, `CC(C)C[C@@H](C(=O)N[C@H](C(=O)Nc1nccs1)C(C)(C)C)[C@H](CCC(F)(F)F)N(O)C=O`: 598 nM; `COc1ccc(OC)c(NC(=O)c2c(-c3c(F)cccc3Cl)noc2C)c1`: 701 nM.

On to `COc1ccccc1NC(=O)Nc1cccc(-c2ccc(-c3nc4cccc(C)c4[nH]3)s2)c1`, for which the XC50 was 579 nM. `CCCN(CCCCNC(=O)c1ccc(-c2cccnc2)cc1)C1CCc2c(O)cccc2C1` (centres undefined) returned an XC50 of 1120 nM. Molecule `CCCCN(CCCC)CCCN(CCCN(CCCC)CCCC)c1cc(C)nc(Nc2ccc(Br)cc2)n1` displayed an XC50 of 131 nM.

As to `CC1CCCN1Cc1cccc(-c2ccc(C(=O)NCCOc3ccccc3)s2)c1` (centres undefined), the XC50 came to 925 nM. With `C[C@@H](C(N)=O)N1CCCCC1c1ccc(OCc2cccc(F)c2)cc1` (some centres undefined) the figure was 989 nM.

With `O=C(Nc1ccccc1)NC1CCN(CCC2(c3ccc(Cl)c(Cl)c3)COCN(C(=O)c3ccccc3)C2)C1` (centres undefined), the XC50 was 880 nM. The molecule `O=C(Nc1ccc(-c2nc3ccccc3[nH]2)cc1)c1ccc([N+](=O)[O-])s1` came in with an XC50 of 252 nM. With `O=C(/C=C/c1ccc(Cl)c(Cl)c1)NCCCCCN1CCC(NC(=O)NCCc2ccccc2)CC1`, the XC50 was 722 nM. The molecule `O=C(NC1CCCCC1)N(Cc1cccc(-c2ccc(CNCCc3ccccc3)cc2)c1)C1CCN(Cc2ccccc2)CC1` displayed an XC50 of 650 nM. With `O=C(/C=C/c1ccc(Cl)cc1)NCCCCCN1CCC(C(=O)Nc2cccc(Cl)c2)CC1` the figure was 853 nM; with `O=S(=O)(Nc1ccc(CCN2CCCCC2CCN2CCCC2)cc1)c1cccc2cccnc12` (centres undefined), 1300 nM; with `Cc1nc(-c2cccc3c(NC(=O)Nc4ccc5nccc(N6CCN(C)CC6)c5c4)cccc23)no1`, 235 nM. On to `COc1cc2nc(NCCc3ccccc3)nc(NC(C)c3ccccc3)c2cc1OC` (centres undefined), for which the XC50 was determined as 281 nM. With `COc1ccc(CNc2ncc(-c3ccsc3)c(-c3nccs3)n2)cc1OC` the figure was 89 nM; with `Cc1ccc(Nc2nccc(NCC(O)c3cccc(F)c3)n2)cc1` (centres undefined), 675 nM.

In turn, `COc1ccc(CNCc2ccc(F)cc2)cc1-c1cccc(S(=O)(=O)NCCN2CCCC2)c1` came in with an XC50 of 805 nM. Turning to `Cc1cccc(NC(=O)NC2CCN(CCCCCNC(=O)/C=C/c3ccc(Cl)c(Cl)c3)CC2)c1`, the XC50 worked out at 753 nM.

For the molecule `COc1ccccc1C1CCN(Cc2csc(NC(=O)c3ccc(-c4ccc(C(F)(F)F)cc4)cc3)n2)CC1`, the XC50 was 954 nM. With `COc1cccc(CNC[C@@H](O)[C@H](Cc2ccccc2)NC(=O)c2cc(NC(C)C)cc(N3CCCCS3(=O)=O)c2)c1` the figure was 784 nM. In turn, `CCc1sc(N2CCN(C)CC2)nc1C(=O)NCCc1ccc(Cl)c(Cl)c1` gave an XC50 of 1180 nM.

For the molecule `CC(C)c1cccc(OCC2CCN(c3ncc(C(=O)NC4CC4)cc3Cl)CC2)c1`, the XC50 is 681 nM. With `CC1(C)N=C(N)N=C(N)N1OCc1cc2ccccc2cc1CON1C(N)=NC(N)=NC1(C)C` the figure was 126 nM; with `NC(=O)c1ccc(C(=O)Nc2cccc(-c3csc(-c4nc5ccccc5[nH]4)c3)c2)cc1`, 351 nM.

In turn, `COc1ccc(CN2CCCN(Cc3cccc(NC(=O)c4ccc5ccccc5c4)c3)CC2)cc1` came in with an XC50 of 1000 nM.

Take `O=C(O)C[C@H](NC(=O)c1cc(-c2ccc3c(c2)OCO3)no1)C(=O)O.O=C(O)C[C@H](NC(=O)c1conc1-c1ccc2c(c1)OCO2)C(=O)O`: the XC50 came to 194 nM. The molecule `Nc1ncc(-c2ccc(NC(=O)Nc3cc(C(F)(F)F)ccc3F)cc2)c(N)n1` showed an XC50 of 719 nM. `O=C(Nc1ccnc2ccccc12)NC1CCN(CCc2ccccc2)CC1` displayed an XC50 of 364 nM. Turning to `CC(CN1CCN(CC(c2ccc(F)cc2)N2CCN(C)CC2)CC1)C(=O)c1ccc(O)cc1` (centres undefined), the XC50 was 672 nM.

In the case of `CC(C)CCCC(C)(C)NC[C@@H](O)[C@H](Cc1ccccc1)NC(=O)c1cccc(OCC2CC2)c1`, the XC50 amounted to 843 nM. Next, `OC(CNc1ccnc(Nc2ccccc2)n1)c1cccc(C(F)(F)F)c1` (centres undefined): 646 nM; `Nc1nc(N)c2c(Cl)c(CNc3cccc(C(=O)O)c3)ccc2n1`: 8.88 nM; `CS(=O)(=O)c1cccc(-c2cnc3[nH]cc(-c4ccc(CCC(=O)O)cc4)c3c2)c1`: 634 nM. Next, `CCOc1ccc2c(=NN=Cc3cccc(OC)c3)cc(C)[nH]c2c1`: 123 nM; `COc1ccc(C(=O)Nc2ccc3nc(N4CCCCC4)cc(C)c3c2)cc1[N+](=O)[O-]`: 779 nM. Next, `S=C(NCCN1CCOCC1)Nc1ccccc1`: 1020 nM. The molecule `Fc1cccc(COc2ccc(Nc3ncnc4sc(C#CCNC5CCC5)cc34)cc2Cl)c1` came in with an XC50 of 875 nM. Next, `COc1ccc(S(=O)(=O)Nc2cc(C)cc(Br)c2OC)cc1N1CCN(C(=O)C(Cl)(Cl)Cl)CC1`: 871 nM. Next, `Cc1cccc2nc(-c3ccc(-c4cccc(CNCc5ccccc5)c4)cc3)[nH]c12`: 246 nM; `CN(C)c1cccc(CCNCCc2c[nH]c3ccc(Cl)cc23)c1`: 436 nM.

`CN(CCCCNC(=O)c1ccc(-c2ccccc2)cc1)C1CCc2c(O)cccc2C1` (centres undefined) displayed an XC50 of 724 nM. On to `O=C(Nc1cccc(-c2ccc(-c3nc4cc(F)ccc4[nH]3)s2)c1)c1ccncc1`, for which the XC50 turned out to be 703 nM. `O=C(Nc1ccccc1)c1ccc(N2CCC(COc3cccc(C(F)(F)F)c3)CC2)nc1` registered an XC50 of 298 nM. For the molecule `CCc1cn2c3c(cc(C(=O)N[C@@H](Cc4cc(F)cc(F)c4)[C@H](O)CNC4CCCCC4)cc13)N(C)S(=O)(=O)CC2`, the XC50 was 34.5 nM. The molecule `Cc1cc(-c2ccc(NC(=O)Nc3ccc4nccc(N5CCN(C)CC5)c4c3)cc2C)cc(C)n1` registered an XC50 of 153 nM. Consider `CN1CCN(c2ccnc3ccc(NC(=O)Cc4ccc(-c5ccncc5)c5ccccc45)cc23)CC1`, for which the XC50 worked out at 203 nM. For the molecule `O=C(CNCC1CCCCC1)Nc1cc(C(F)(F)F)ccc1Cl`, the XC50 was 982 nM. With `COc1ccc2nccc([C@@H](O)CN3CCC(NC(=O)C(c4cc5ccccc5o4)N4CCN(Cc5ccccc5)CC4)CC3)c2c1` (some centres undefined) the figure was 163 nM; with `O=C(NCCCCN1CCC(c2ccc3c(c2OCCO)CCCC3)CC1)c1ccc2oc(-c3ccc(C(F)(F)F)cc3)cc2c1`, 340 nM; with `O=C(/C=C/c1ccc(Cl)c(Cl)c1)NCCCCCCN1CCCN(C(=O)Nc2cccc(C(F)(F)F)c2)CC1`, 793 nM. For the molecule `CC(CN(C)C)C(=O)Nc1ccc(-c2ccc(-c3nc4ccccc4[nH]3)cc2)cc1` (centres undefined), the XC50 was found to be 741 nM.

`O=C(/C=C/c1ccc(Cl)c(Cl)c1)N1CCC(NCc2c[nH]c3ccccc23)CC1` had an XC50 of 1070 nM. In turn, `CC1(C)NC(N)=NC(=N)N1OCCCNC(=O)c1ccc(C(=O)NCCCON2C(=N)N=C(N)NC2(C)C)cc1` had an XC50 of 21.6 nM.

For `COc1cc(Cc2cnc(N)nc2N)cc(OC)c1OCCCCCN1C(=O)c2ccccc2C1=O`, the XC50 amounted to 618 nM. With `CCCCCNc1ccnc2cc(Cl)ccc12` the figure was 509 nM; with `CC(C)c1ccc(NC(=O)c2ccc(CN3CCCN(CC4CCCCC4)CC3)cc2)cc1`, 615 nM. With `Fc1ccc(COc2ccc(Nc3ncnc4ccc(I)cc34)cc2Cl)cc1` the figure was 1180 nM; with `COc1ccc(N2CCN(CCCCNC(=O)c3ccc(NC(=O)c4cccc(Cl)c4)cc3)CC2)c(OC)c1`, 911 nM; with `COc1ccc(Nc2ncc3c(-c4cccc(NC(=O)Cc5cccc(O)c5)c4)c[nH]c3n2)cc1OC`, 698 nM.

Consider `CC(Cc1ccc(OCCCCOc2ccccc2)cc1)NCCCN1CCOCC1` (centres undefined), for which the XC50 was 725 nM.

Take `O=C(Nc1ccc(Cl)c(Cl)c1)N1CCc2cc3nccc(N4CCN5CCC[C@H]5C4)c3cc21`: the XC50 came to 628 nM.

`Cn1cncc1CNCc1ccc(-c2cccc(-c3nc4ccccc4[nH]3)c2)cc1`: the XC50 turned out to be 234 nM. Consider `CN1CCCN(Cc2ccc(-c3ccc(NC(=O)c4cccc(Cl)c4)cc3)cc2)CC1`, for which the XC50 turned out to be 859 nM.

On to `O=S(=O)(Nc1cccc(CCN2CCC(N3CCCCC3)CC2)c1)c1cccc2ccccc12`, for which the XC50 was 937 nM. With `Cc1noc(C)c1-c1cccc(CNCc2ccc(-c3cccc(-c4nc5cccc(C)c5[nH]4)c3)cc2)c1` the figure was 215 nM; with `COc1ccc(NC(=O)c2csc(-c3cc(NC(=O)c4ccnc(N5CCCC5)c4)ccc3C)c2)cc1N1CCN(C)CC1`, 660 nM.
